# Measurements from patent US8952024B2, “Herbicidal pyrimidone derivatives” (E I du Pont de Nemours and Company, priority 2009, dated 2015).
# Key:
# Type in all cases: in vivo
# [1] = tested on: giant foxtail (Setaria faberii); experiment: Test A pre-/postemergence plant response
# Procedure, shortened: (§1)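 Pre: directed soil spray on seeded loam/sand blend. Post: same formulation (non-phytotoxic solvent + surfactant) on 2–10 cm plants, 1–2 leaf stage. Greenhouse ~10 d; visual injury score 0–100 vs untreated.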
# [2] = tested on: velvetleaf (Abutilon theophrasti); experiment: Test A pre-/postemergence plant response
# Procedure, shortened: as §1
# [3] = tested on: large crabgrass (Digitaria sanguinalis); experiment: Test A pre-/postemergence plant response
# Procedure, shortened: as §1
# [4] = tested on: wheat (Triticum aestivum); experiment: Test A pre-/postemergence plant response
# Procedure, shortened: as §1
# corn (Zea mays) = experiment: Test A pre-/postemergence plant response
# Procedure, shortened: as §1
# [5] = tested on: barnyardgrass (Echinochloa crus-galli); experiment: Test A pre-/postemergence plant response
# Procedure, shortened: as §1
# [6] = tested on: pigweed (Amaranthus retroflexus); experiment: Test A pre-/postemergence plant response
# Procedure, shortened: as §1
# [7] = tested on: morningglory (Ipomoea spp.); experiment: Test A pre-/postemergence plant response
# Procedure, shortened: as §1
# [8] = tested on: wheat (Triticum aestivum); experiment: Test B pre-/postemergence plant response
# Text: (§2) Seeds of plant species selected from blackgrass (Alopecurus myosuroides), downy bromegrass (Bromus tectorum), green foxtail (Setaria viridis), Italian ryegrass (Lolium multiflorum), wheat (Triticum aestivum), wild oat (Avena fatua), deadnettle (henbit deadnettle, Lamium amplexicaule), galium (catchweed bedstraw, Galium aparine), bermudagrass (Cynodon dactylon), Surinam grass (Brachiaria decumbens), cocklebur (Xanthium strumarium), corn (Zea mays), large crabgrass (Digitaria sanguinalis), woolly cupgrass (Eriochloa villosa), giant foxtail (Setaria faberii), goosegrass (Eleusine indica), johnsongrass (Sorghum halepense), kochia (Kochia scoparia), lambsquarters (Chenopodium album), morningglory (Ipomoea coccinea), nightshade (eastern black nightshade, Solanum ptycanthum), yellow nutsedge (Cyperus esculentus), pigweed (Amaranthus retroflexus), ragweed (common ragweed, Ambrosia elatior), Russian thistle (Salsola kali), soybean (Glycine max), sunflower (common oilseed sunflower, Helianthus annuus) and velvetleaf (Abutilon theophrasti) were planted into a blend of loam soil and sand and treated preemergence with test compounds formulated in a non-phytotoxic solvent mixture which included a surfactant.
# (§3) At the same time, plants selected from these crop and weed species and also winter barley (Hordeum vulgare), canarygrass (Phalaris minor), chickweed (Stellaria media) and windgrass (Apera spica-venti) were planted in pots containing Redi-Earth® planting medium (Scotts Company, 14111 Scottslawn Road, Marysville, Ohio 43041) comprising spaghnum peat moss, vermiculite, wetting agent and starter nutrients and treated with postemergence applications of some of the test chemicals formulated in the same manner. Plants ranged in height from 2 to 18 cm (1- to 4-leaf stage) for postemergence treatments.
# (§4) Treated plants and controls were maintained in a greenhouse for 13 to 15 days, after which time all treated plants were visually evaluated and compared to controls. Plant response ratings, summarized in Table B, are based on a scale of 0 to 100 where 0 is no effect and 100 is complete control. A dash (-) response means no test result.
# [9] = tested on: cocklebur (Xanthium strumarium); experiment: Test B pre-/postemergence plant response; conditions: Preemergence
# Text: as §2, §3, §4
# [10] = tested on: bermudagrass (Cynodon dactylon); experiment: Test B pre-/postemergence plant response
# Text: as §2, §3, §4
# [11] = Postemergence, 125 g ai/ha, 0 to 100 scale where 0 is no effect and 100 is complete control
# [12] = Postemergence, 500 g ai/ha, visual injury, 0 to 100 scale (0 no effect, 100 complete control), approx. ten days
# [13] = Preemergence, 125 g ai/ha, 0 to 100 scale, 0 = no effect, 100 = complete control
# [14] = Preemergence, 500 g ai/ha, 0 to 100 scale, 0 = no effect, 100 = complete control
# [15] = Postemergence, 31 g ai/ha, 0 to 100 scale (0 no effect, 100 complete control)
# [16] = Postemergence, 250 g ai/ha, scale 0 to 100 (0 no effect, 100 complete control), 13 to 15 days
# [17] = Postemergence, 62 g ai/ha, scale 0 to 100 (0 no effect, 100 complete control)
# [18] = Preemergence, 31 g ai/ha, scale 0 to 100 (0 no effect, 100 complete control)
# [19] = Preemergence, 62 g ai/ha, scale 0 to 100, 0 no effect, 100 complete control
# [20] = Preemergence, 125 g ai/ha, scale 0 to 100, 0 no effect, 100 complete control
compound,measurement,setting,value
CCc1cccc(-n2c(-c3ccccc3)ncc(C(=O)C3=C(O)CCCC3=O)c2=O)c1 [Compound 220],"Plant response rating, Foxtail, Giant",[1]; [11],20
same,"Foxtail, Giant plant response rating",[1]; [12],60
same,"Plant response rating, Foxtail, Giant",[1]; [13],0
same,"Plant response rating, Foxtail, Giant",[1]; [14],40
same,"Plant response rating, Velvetleaf",[2]; [11],100
same,Velvetleaf plant response rating,[2]; [12],100
same,"Plant response rating, Velvetleaf",[2]; [13],40
same,"Plant response rating, Velvetleaf",[2]; [14],100
same,"Plant response rating, Crabgrass, Large",[3]; [11],50
same,"Crabgrass, Large plant response rating",[3]; [12],90
same,"Plant response rating, Crabgrass, Large",[3]; [13],20
same,"Plant response rating, Crabgrass, Large",[3]; [14],90
same,"Plant response rating, Wheat",[4]; [11],0
same,Wheat plant response rating,[4]; [12],20
same,"Plant response rating, Wheat",[4]; [13],0
same,"Plant response rating, Wheat",[4]; [14],0
same,"Plant response rating, Corn",corn (Zea mays); [11],0
same,Corn plant response rating,corn (Zea mays); [12],30
same,"Plant response rating, Corn",corn (Zea mays); [13],0
same,"Plant response rating, Corn",corn (Zea mays); [14],10
same,"Plant response rating, Barnyardgrass",[5]; [11],90
same,Barnyardgrass plant response rating,[5]; [12],90
same,"Plant response rating, Barnyardgrass",[5]; [13],10
same,"Plant response rating, Barnyardgrass",[5]; [14],90
same,"Plant response rating, Pigweed",[6]; [11],100
same,Pigweed plant response rating,[6]; [12],100
same,"Plant response rating, Pigweed",[6]; [13],80
same,"Plant response rating, Pigweed",[6]; [14],100
same,"Plant response rating, Morningglory",[7]; [11],100
same,Morningglory plant response rating,[7]; [12],100
same,"Plant response rating, Morningglory",[7]; [13],0
same,"Plant response rating, Morningglory",[7]; [14],70
same,"Plant response rating, Wheat",[8]; [15],0
same,"Plant response rating, Wheat",[8]; [16],15
same,"Plant response rating, Wheat",[8]; [17],0
same,"Plant response rating, Wheat",[8]; [18],0
same,"Plant response rating, Wheat",[8]; [19],0
same,"Plant response rating, Wheat",[8]; [20],0
same,Wheat plant response rating,"[8]; Preemergence, 250 g ai/ha, 0 to 100 scale",5
same,"Plant response rating, Cocklebur","[9]; 31 g ai/ha, scale 0 to 100 (0 no effect, 100 complete control)",0
same,"Plant response rating, Cocklebur","[9]; 62 g ai/ha, scale 0 to 100, 0 no effect, 100 complete control",0
same,Cocklebur plant response rating,"[9]; 250 g ai/ha, 0 to 100 scale",0
same,"Plant response rating, Bermudagrass",[10]; [15],80
same,"Plant response rating, Bermudagrass","[10]; Postemergence, 125 g ai/ha, scale 0 to 100 (0 no effect, 100 complete control)",98
same,"Plant response rating, Bermudagrass",[10]; [16],100
same,"Plant response rating, Bermudagrass",[10]; [17],95
same,"Plant response rating, Bermudagrass",[10]; [18],80
same,"Plant response rating, Bermudagrass",[10]; [19],98
same,"Plant response rating, Bermudagrass",[10]; [20],98
same,Bermudagrass plant response rating,"[10]; Preemergence, 250 g ai/ha, 0 to 100 scale, 0 no effect, 100 complete control",100
